Melting point data for 89 compounds are collected here from a melting point compilation (Tetko et al.; mined from patent text by program, amines drawn as free bases though some values may be those of a salt).

In general, melting point refers to the temperature, or range, at which the solid turns liquid.

Where only a bound is given, the exact number is not on record here.

Compound `CCCCC(CC)C(=O)NCCCCCCCCCCCOCC(O)CNCCO` (centres undefined) registered a melting point of 76.1 to 77.3 °C. Then `Cc1cccc2c(=O)n(CCCN3CC=C(c4ccc(Cl)cc4)CC3)c(=O)[nH]c12`, with 215 to 217 °C; and `COC(=O)c1ccc(C(C)=O)o1`, with 101 to 102 °C; and `Oc1cccc(N(c2ccccc2)c2ccc(-c3ccc(N(c4ccccc4)c4cccc(O)c4)cc3)cc2)c1`, with 113 to 117 °C.

As to `COc1cc2c(cc1-c1ncco1)-c1c(-c3cccs3)c3c(n1CC2)C(=O)N(C(C)(C)C)CCC3`, the melting point lay in the range of 230 to 231 °C.

As for `COC1=CC(=O)CN(Cc2ccccc2)C1`, the melting point is 113 to 115 °C. Next, `O=C(OC1CCCCCCC1)c1cc2cc(CCl)ccc2oc1=O`: 169 to 170 °C; `CC(=O)Nc1ccc(OC/C=C(\C)C=O)cc1`: 127 to 130 °C. Next, `CCCn1c(=O)c2[nH]c([C@H](C)c3ccccc3)nc2n(CCC)c1=O`: 136 to 137 °C; `CC(C)COc1ccc(C(=O)N/C(=C\c2ccc(OCC(F)F)cc2)C(=O)NCCO)cc1`: 150 to 151 °C. Next, `CCOc1nn(-c2c(Cl)cc(Cl)cc2Cl)c(N2C(=O)c3ccccc3C2=O)c1C(=O)c1ccccc1Cl`: 215 to 216 °C; `CC(C)(C)OC(=O)C1C(C#CC(=O)OCC(Cl)(Cl)Cl)C1(C)C` (centres undefined): 70 to 71 °C. Compound `Nc1nc2ccccc2c2c1nc(-c1ccccc1)n2CCCCNC(=O)Nc1ccc(F)cc1` yielded a melting point of 145 to 150 °C. Next, `Fc1cc(Cl)ccc1-c1ncnc(C(F)F)c1Cl`: 76 to 77 °C; `Nc1nc(NCCN2CCCCC2)nc(-c2cc(Cl)ccc2Cl)n1`: 179 to 181 °C; `Cc1cccc(C)c1OCC1CN=C(N)O1` (centres undefined): 114 °C.

`CC(C)COC(=O)Nc1ccc(C2CCSCC2)cc1` displayed a melting point of 126 to 128 °C. Next, `O=C1CCC(c2ccc3[nH]c(-c4ccnnc4)cc3c2)=NN1`: more than 300 °C; `CC(=O)N1CCC(CCC(=O)c2cc3c4c(c2)CC(=O)N4CCC3)CC1`: 119 to 120 °C; `O=C1Cc2cc(OCc3ccc4ccccc4n3)ccc2N1c1c(Cl)cccc1Cl`: 147 to 148 °C. Next, `CN(C)C(=O)c1cc(=O)c2ccsc2s1`: 126 °C; `Cc1oc(-c2ccccc2)nc1COc1ccc(Cn2cc(CCC(=O)O)c(OCc3ccccc3)n2)cc1`: 108 to 109 °C; `Cc1ccc(C)c(CNc2c(NC(C)(C)C)c(=O)c2=O)c1`: 246 to 247 °C. `COc1ccc(-c2nc(C)c(Cl)[nH]2)cc1` had a melting point of 182 to 186 °C. Next, `CON(C)C(=O)c1sc(SC)c2c1CCc1sc(-c3ccccc3)nc1-2`: 157 to 158 °C; `Cc1cc(-c2ccccc2)n2nc(N3CCN(Cc4ccccc4)CC3)c(C#N)c2n1`: 160 to 164 °C; `CNc1nc(-c2cccc(NC(=O)c3ccc(Cl)cc3)c2)c2cc(OC)c(OC)cc2n1`: 193 to 195 °C.

`COC(=O)c1c(-c2ccc(F)cc2)c2cc(OCc3ccccc3)ccc2c(=O)n1CC(C)C`: the melting point fell in the range of 118 to 119 °C. In turn, `CCOC(=O)C(C)(C)N1OCC(CSC)=C(c2ccccc2)C1=O` yielded a melting point of 105 to 106 °C.

`CSc1nn2c(N3C[C@@H](C)N[C@@H](C)C3)cc(C)nc2c1S(=O)(=O)c1ccccc1` yielded a melting point of 220 to 221 °C.

As for `O=C(c1ccc(OCC2CO2)cc1)c1cccc2[nH]ccc12` (centres undefined), the melting point was 96 °C. Then `COc1ccc2c(c1)[C@H](c1ccccc1)CN(C)CC2`, with 50 to 51 °C; and `CCCCNC(=O)NC(=O)c1cc([N+](=O)[O-])cnc1C`, with 111 to 112 °C; and `O=C(NCCCO)c1cccc(-c2cccn3c(=O)n(Cc4cccc(C(F)(F)F)c4)nc23)c1`, with 148 to 149 °C. Next, `Cn1c(C(F)(F)F)cc(=O)n(-c2ccc(Cl)c(S(N)(=O)=O)c2)c1=O`: 257 to 258 °C. Then `CSc1ccc(-c2coc3ccc(-c4nnc(C)o4)cc23)cc1C`, with 185 to 186 °C; and `O=C1NCC(Cc2ccccc2)O1` (centres undefined), with 104 to 105 °C. `Cn1nc(Nc2cc(-c3ccc4c(c3)NC(=O)C4)cn3ccnc23)cc1C(C)(C)O` displayed a melting point of 180 to 182 °C. Next, `Nc1cccc(-c2ccc(C3=CCCN(Cc4ccccc4)C3)cc2)n1`: 270 to 272 °C. Regarding `CCc1cc(NC(=O)N2CCC(C(=O)O)(c3ccccc3)CC2)c(OC)nc1C`, the melting point is 173 to 174 °C. Then `Cn1c([N+](=O)[O-])cnc1C(Cl)Cl`, with 52 °C; and `Cc1oc(-c2ccccc2)nc1CCCCCO`, with 40 to 42 °C.

In turn, `NC(=O)C1=C(NCc2ccccc2)CCCC1` registered a melting point of 73 to 74 °C.

`COC(=O)C1(N)C(=O)Nc2ccccc2CC1c1ccccc1` (centres undefined) displayed a melting point of 201 °C. For `CCOC(=O)c1c(S(C)(=O)=O)nc2sccn12`, the melting point was 158 to 161 °C. Next, `Nc1nc2cc(-c3cccnc3)ccc2c2c1nc(CO)n2CC1CCOCC1`: 260 to 262 °C; `CN1CCCC1CCNNC(=O)N1CCC(c2[nH]nc3c2C(=O)c2c(NC(=O)NN4CCOCC4)cccc2-3)CC1` (centres undefined): 91 to 93 °C; `COc1ccccc1N1CCN(CC(Cc2ccccc2)C(=O)O)CC1` (centres undefined): 155 to 158 °C. On to `CC(C)(CCC(=O)O)N(Cl)Cl`, for which the melting point lay in the range of 35 to 38 °C.

Compound `COC(=O)CC1CCN(CCC=C2c3ccccc3OCOc3ccccc32)C1` (centres undefined) returned a melting point of 70 to 90 °C. Then `CC(C)c1nc2c(N)nc(-c3ccncc3)nc2[nH]1`, with 269 to 272 °C; and `Cc1ccc([N+](=O)[O-])cc1S(=O)(=O)n1ccnc1`, with 119 to 120 °C; and `CC(c1oc2ccccc2c(=O)c1-c1cccc(F)c1)n1ncc2c(Cl)ccnc21` (centres undefined), with 173 to 176 °C. Then `CNC(=O)c1cc2c(Oc3ccc(C(F)(F)F)cc3)cnc(Cl)c2s1`, with 178 to 179 °C.

`CCCCc1ccc2c(c1)Cc1cc(C(C)=O)ccc1-2` displayed a melting point of 102 to 104 °C. Then `Cc1c(C)c2c(c(C)c1NC(=O)CC(C)(C)C)C(c1cccc(C=O)c1)CO2` (centres undefined), with 178 to 179 °C; and `COc1ccccc1N1CCN(CC2CCc3ccccc3C2O)CC1` (centres undefined), with 110 to 113 °C.

In turn, `CCc1noc(-c2cn(-c3nccnn3)cn2)n1` came in with a melting point of 181 to 182 °C.

`COc1cc(NC(=O)CNC(=O)c2ccccc2)ccc1-c1cnco1` had a melting point of 243 to 245 °C. In turn, `COC(=O)CCc1cc2cc(Cl)ccc2n1S(=O)(=O)c1ccc(C(F)(F)F)cc1` registered a melting point of 82 to 86 °C. Then `CCOC(=O)c1c(N2CCN(C(=O)c3cccs3)CC2)c2cccnc2n(Cc2cccc(F)c2)c1=O`, with 105 to 110 °C; and `C=C(CCCCCCCCCCCCCCCC)CC(CO)CO`, with 64 to 65 °C.

For the compound `N#Cc1csc2ccccc12`, the melting point lay within 67 to 69 °C. Then `CCN(CCO)C(=O)c1ccc(C(=O)N2CCN(c3ncccc3NC(C)C)CC2)cc1`, with 115 °C; and `C1=C(CCC2CCCO2)CCN(Cc2c[nH]c3ncccc23)C1` (centres undefined), with 70 to 72 °C. Next, `CC(C)(C)[Si](C)(C)Oc1ccc2c3c1OC1C(C4OCCO4)CCC4(O)C(C2)N(CC2CC2)CCC314` (centres undefined): 108 to 109 °C. Next, `Fc1ccc2c(C3CCN(CC4=Cc5ccccc54)CC3)noc2c1`: 78 to 82 °C; `CC(C)C(=O)NC(c1ccc(C=NO)cc1)C(F)(F)F` (centres undefined): 169 to 171 °C. In turn, `COC(=O)c1cc2cc([N+](=O)[O-])c(OCc3ccccc3)cc2[nH]1` showed a melting point of 184 to 187 °C. In the case of `CCNC(=O)N1c2ccccc2-c2noc3c2C1CCC3` (centres undefined), the melting point was determined as 189 °C. Then `CCOc1ccc(C2=NN(C(CC)CCCCC(=O)O)C(=O)C3CCCCC23)cc1OCC` (centres undefined), with 90 to 91 °C.

`CCCCc1nc(SCC)c(CO)n1Cc1ccc(-c2ccccc2C(=O)O)cc1` yielded a melting point of 160 °C. On to `CCSc1ccc(CC(=O)NC(NC(Cc2ccccc2C)=NC#N)C(C)(C)C)cc1` (centres undefined), for which the melting point was in the range of 196 to 198 °C. Then `COc1ccc(C2CCN(C(=O)C(=O)NO)CC2)cc1C=C1CCCCCC1`, with 135 to 136 °C. In turn, `COc1nc2cc(Cl)c(Cl)c(-n3c(CN4CCOCC4)nnc3-c3cccnc3)c2nc1OC` came in with a melting point of 178 to 179 °C.

`CCOC(=O)c1cnc(SC)nc1NC`: the melting point was in the range of 91 to 93 °C.

`O=C(O)C1=Cc2cc(C3CCCCC3)ccc2CC1` displayed a melting point of 179 to 180 °C. Then `FC(F)(F)c1n[nH]c(-c2nc3ccccc3s2)n1`, with 254 °C; and `CS(=O)(=O)c1ccc(-c2cc(C(=O)CCCO)nn2-c2ccc(F)cc2)cc1`, with 164 to 166 °C. Then `O=C(O)CCc1cn(Cc2ccc(OCc3ccc4ccccc4n3)cc2)nc1-c1ccccc1`, with 147 to 148 °C; and `O=C1CCC(N2C(=O)c3ccc(CNC(=O)c4cc5ccccc5s4)cc3C2=O)C(=O)N1` (centres undefined), with 318 to 320 °C. The compound `CN(CCOc1ccc(C=C2SC(=O)NC2=O)cc1)c1nc2ccccc2o1` had a melting point of 227 to 229 °C. Next, `CC1(N)CCC(=O)N(C(=O)OCc2ccccc2)C1=O` (centres undefined): 150 to 152 °C; `COc1ccc(-c2nc(-c3ccc4c(c3)CCCN4C(C)=O)cs2)cc1OC`: 148 °C; `CCCCC12CCC3=C(CCc4cc(OC)ccc43)C1CCC2O` (centres undefined): 90 to 100 °C.

In turn, `CCN(CC)CCSc1ccc(/C=C/C(=O)OC)cc1[N+](=O)[O-]` yielded a melting point of 57.4 to 59.1 °C. Next, `CCCc1nc(O)c(-c2ccc(C)cc2)c(O)n1`: more than 300 °C; `Cn1cnc(COc2nc3c(cc2-c2cccs2)nnn3-c2ccccc2F)n1`: 179 to 181 °C; `CC1(C)C(C#CC(=O)OCC(Cl)(Cl)Cl)C1C(=O)OC(C#N)c1cccc(Oc2ccccc2)c1` (centres undefined): 101 °C.
